Where “and” joins values, the source holds several entries; their conditions need not be identical. Equal values may be shown once. Read-outs that look alike come from different tables or passages of the source.
Assays:
[1] = test system: E. coli strain UTI89 in the bladder of C3H/HeN mice; test: In vivo inhibition in the murine cystitis model (instillation with UTI89)
Description: In vivo inhibition was evaluated by instilling 1-4 together with the UTI89 strain via a catheter in the bladder of C3H/HeN mice. […] A group of ten animals was used for each concentration of antagonists. […] The animals were sacrificed at a 6 h post infection time.
A murine model of urinary tract infection was used to test the ability of the compounds to inhibit the colonization of UTI89 in the bladder [Hung C. S.; Dodson, K. W., Hultgren S. J. Nat. Protoc. 2009, 4, 1230-1243 and Wellens A.; Garofalo C.; Nguyen H.; Van Gerven N.; Slättegård R.; Hernalsteens, J.-P.; Wyns, L.; Oscarson, S.; De Greve H.; Hultgren S. J.; Bouckaert, J. PLoS ONE 2008, 3, e2040]. The solution with high concentration of compounds was added to the resuspension of UTI89 before given to the mice. The eight-week old Female C3H/HeN mice (Harlan, Horst, The Netherlands) were anesthetized and infected via transurethral catheterization of 10^7 CFU UTI89 in solution in PBS, or in PBS with the compound in the mentioned concentration. The mice were sacrificed at 24 hours post infection and the bladders were harvested, homogenized and resuspended in PBS. The serial dilutions were spot on LB medium agar plates. The bacterial load was determined by counting the CFU recovered from the bladder. The animal experiments were approved by the Ethical Committer for Animal Experiments of Vrije Universiteit Brussel and complied with all relevant national legislation and institutional policies. The Mann-Whitney test was applied for the comparison of the data obtained from the untreated group and inhibition group in GraphPad Prism version 5.1 and two tailed P value were shown (GraphPad software).
A limited number of papers described the in vivo efficiency of anti-adhesive mannosides to treat UTIs.

[2] = molecular target: T1, monovalent lectin domain of FimH (Escherichia coli, UniProt P08191); assay type: binding
T1 construct: with the monovalent lectin domain of FimH were measured using isothermal calorimetry (ITC)

[3] = test system: human Jurkat cells; test: Prevention of FimH-induced apoptosis of Jurkat cells (24 h)
Description: Eventually, we tested the ability of mannose-based inhibitors to prevent the induction of cell death of human Jurkat cells under the treatment with FimH. We cultures cells with the indicated compound for 24 h and counter percentage of viable (AnV−/Pi−), apoptotic (AnV+/Pi−) and necrotic cells (AnV+/PI+). […] 2. […] 3.
Apoptosis was induced by UV-B irradiation with 90 mJ/cm^2, apoptosis of human PMN cells was induced by 24 h aging. To quantify the rate of apoptosis, cells were analyzed by flow cytometry or fluorescent microscopy. Amongst other features, apoptosis is characterized by blebbing of the cellular membrane, leading to a decrease in the forward scatter (FSC) and an increase in the sideward scatter (SSC). For detection of phosphatidylserine (PS) exposure on the cell surface staining with FITC conjugated annexin V (Böhringer, Mannheim, Germany) in combination with propidium iodide (PI) (AxV/PI) was performed. 200.000 cells were stained for 30 minutes at 4° C. with 200 ng of AxV-FITC and 500 ng propidium iodide (PI) in 500 μl Ringer's solution [Nicoletti, Migliorati, Pagliacci, Grignani and Riccardi, A rapid and simple method for measuring thymocyte apoptosis by propidium iodide staining and flow cytometry. J Immunol Methods, 1991. 139.271-9]. The samples were immediately analyzed by flow cytometry of fluorescent microscopy.

[4] = test system: primary human peripheral venous blood monocyte-derived macrophages; test: Macrophage-mediated phagocytosis of aged PMN cells; assay type: cell-based; settings: 10 nM
Description: To estimate the influence of mannose-based inhibitors on possible inhibition of phagocytosis we used primary human peripheral venous blood monocyte-derived macrophages and estimated their ability to phagocyte autologous and allogenic human blood-derived PMN cells, as described by us previous (Bilyy, R. O. et al. (2012) J Biol Chem 287, 496-503).
Primary human PMN and MoMa from healthy volunteers were used. Monocytes were isolated from peripheral blood by LymphoPrep® gradient according to manufacture's recommendations for isolation of PBMC fraction. Plastic-attached cells of PBMC fraction were then cultured for 7 days in the presence of GM-CSF (100 U/ml) and autologous serum (added at days 1, 3 and 5) to generate MoMa. After 7 days of differentiation, the MoMa population was tested. They typically contain >95% CD11b+ cells, >90% CD14+ cells and >85% CD89+ cells. Phagocytosis was assessed by pre-incubation of PMN (freshly isolated or aged for 24 h) with mannose-based inhibitor for 30 min at 37° C. at Ringer buffer. Cells were thoroughly washed three times with Ringer solution and incubated with human MoMa for 2 hours. Uningested PMN were analyzed by flow cytometry (for this reason cells were pre-stained with CFSE (Rodel, F. et al. (2005) Strahlentherapie and Onkologie: Organ der Deutschen Rontgengesellschaft . . . [et al] 181, 456-462)) or in the hemocytometric chamber using Zeiss AxioImager A1 microscope. The percentage of prey cells that had been bound to or taken up by MoMa (% of phagocytosis) was calculated.

[5] = test system: E. coli strain UTI89 expressing type-1 fimbriae; test: Bacterial crosslinking, epi-fluorescence microscopy; assay type: cell-based, Escherichia coli; settings: acridin orange colored UTI89
Description: The possibility to capture living bacteria in solution with β-CD-based glycol-clusters 2 and 4, using epi-fluorescence microscopy was investigated.
It was decided to evaluate if the FimH aggregation evidenced in ITC, DLS and SAXS could also occur when the lectin is attached at the tip of the bacteria pili. E. coli strain UTI89 expressing type-1 fimbriae. Said bacteria were diluted from the culture medium into PBS and glyco-conjugated in a ten-fold dilution series of 2 or 4 were added. Bacterial cells were then colored with acridin orange.
100 μl of glycoconjugate-agglutinated E. coli were washed in 1 ml PBS, resuspended in 200 μl 0.1% acridin orange and left at room temperature for 2.5 hours. The bacterial cells were washed again in 1 ml PBS to remove unbound acridin orange. A microscope glass was rinsed with 100% EtOH and next dried at the air.

[6] = molecular target: FimH (Escherichia coli, UniProt P08191); settings: Surface Plasmon Resonance (SPR); read-out: Dissociation constant of the HM-FimH complex; cited from earlier work
Chain of FimH (P08191 22-300): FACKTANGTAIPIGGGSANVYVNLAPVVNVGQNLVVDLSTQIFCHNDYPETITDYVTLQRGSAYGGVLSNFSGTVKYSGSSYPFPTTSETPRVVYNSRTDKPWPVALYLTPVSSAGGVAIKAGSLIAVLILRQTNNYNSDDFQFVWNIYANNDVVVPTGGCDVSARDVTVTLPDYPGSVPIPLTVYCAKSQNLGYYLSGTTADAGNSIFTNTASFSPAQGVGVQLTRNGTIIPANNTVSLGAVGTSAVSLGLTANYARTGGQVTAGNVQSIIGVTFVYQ

T1 sequence (P08191 22-179): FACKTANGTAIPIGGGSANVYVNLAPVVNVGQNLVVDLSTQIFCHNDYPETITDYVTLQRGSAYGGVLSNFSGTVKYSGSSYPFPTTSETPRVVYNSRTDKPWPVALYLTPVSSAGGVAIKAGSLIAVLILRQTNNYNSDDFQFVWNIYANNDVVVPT

## OCC1OC(OCCCCCCCOCc2cn(CC3OC4OC5C(Cn6cc(COCCCCCCCOC7OC(CO)C(O)C(O)C7O)nn6)OC(OC6C(Cn7cc(COCCCCCCCOC8OC(CO)C(O)C(O)C8O)nn7)OC(OC7C(Cn8cc(COCCCCCCCOC9OC(CO)C(O)C(O)C9O)nn8)OC(OC8C(Cn9cc(COCCCCCCCOC%10OC(CO)C(O)C(O)C%10O)nn9)OC(OC9C(Cn%10cc(COCCCCCCCOC%11OC(CO)C(O)C(O)C%11O)nn%10)OC(OC%10C(Cn%11cc(COCCCCCCCOC%12OC(CO)C(O)C(O)C%12O)nn%11)OC(OC3C(O)C4O)C(O)C%10O)C(O)C9O)C(O)C8O)C(O)C7O)C(O)C6O)C(O)C5O)nn2)C(O)C(O)C1O (centres unmarked) [Compound 2]
[1]; 10 μM (1.8 and 2.5 μg)
  Bacterial reduction compared with monovalent 1 and 3 at 1 mM: equivalent bacterial reduction
[1]; around 2 μg instilled in the mouse bladder, after 24 h
  Reduction of urinary tract infection: significantly reduced the urinary tract infection
[2]; ITC
  Affinity of FimH for the ligand (in words): nanomolar affinities
[2]; normal (direct) titration
  Molar ratio n meas: 0.12
  ΔG°: -10.5 kcal/mol
  ΔH°: -77.5 kcal/mol
  ΔS°: −227 cal/mol/deg
[2]; normal (direct) titration, compound injected into FimH
  Kd: 18.2 nM
[2]; reverse titration
  Molar ratio n meas: 3 and 3.01
  ΔG°: -11.6 kcal/mol
  ΔH°: -19.2 kcal/mol
  ΔS°: −25.9 cal/mol/deg
[2]; reverse titration, FimH injected into compound
  Kd: 2.86 nM and 2.9 nM
[3]
  Toxicity to Jurkat cells: not toxic
[3]; 10 nM
  Prevention of apoptosis induction by FimH: effectively prevented apoptosis induction
[3]; 100 nM
  Prevention of apoptosis induction by FimH: effectively prevented apoptosis induction
[4]
  Phagocytosis rate: no phagocytosis decrease
[5]
  Bacterial clustering in solution: formation of bacterial clusters

## CCCCCCCO[C@H]1O[C@H](CO)[C@@H](O)[C@H](O)[C@@H]1O [HM, Heptylmannoside, reference compound]
[6]
  Kd: 5 nM
[4]
  Phagocytosis rate: significantly decreased phagocytosis rate

Source: patent publication US10273313B2, “Multimeric mannosides, a process for preparing the same and their uses as a drug” (CENTRE NATIONAL DE LA RECHERCHE SCIENTIFIQUE, priority 2012, dated 2019)
